The source of these data is paper PMC12184311 (2025).

Assay [1] has as its system mm3WJ (mismatched 3WJ) (DNA, junction) CGGAACGGCACTCG/CGAGTGCAGCGTGG/CCACGCACGTTCCG
Put plainly: PAGE.

Assay [2] relates to one-base-bulged 3WJ (DNA, junction) CGGAACGAGCACTCG/CGAGTGCAGCGTGG/CCACGCTCGTTCCG
Put plainly: PAGE.

For assay [3], the system named is two-base-bulged 3WJ (DNA, junction) CGGAACGAAGCACTCG/CGAGTGCAGCGTGG/CCACGCTCGTTCCG
Briefly: PAGE.

The subject of assay [4] is 4WJ-22 (DNA, junction) GCCTAGCATGATACTGCTACCG/CGGTAGCAGTACCGTTGGTGGC/GCCACCAACGGCGTCAACTGCC/GGCAGTTGACGTCATGCTAGGC
Put plainly: PAGE gel shift. As to conditions: Mg2+ 10 mM (MgCl2); band widens, no distinct shift.

Assay [5] has the same test system. Briefly: UV melting, 260 nm. Particulars: Na+ (10 mM Na cacodylate, 50 mM NaOAc); 1 equivalent Pt-BIMA, 0.05% DMSO; biphasic.
Assay [6] deals with DS-21 (dsDNA) (DNA, duplex) CCTTCACGCGAACGTAATCCT/AGGATTACGTTCGCGTGAAGG
Briefly: UV melting, 260 nm. As to conditions: Na+ (10 mM Na cacodylate, 50 mM NaOAc); 1 equivalent Pt-BIMA.

Assay [7] relates to 3WJ (DNA, junction) CGGAACGGCACTCG/CGAGTGCAGCGTGG/CCACGCTCGTTCCG
Put plainly: UV melting, 260 nm. Particulars: Na+ (10 mM Na cacodylate, 50 mM NaOAc); 1 equivalent Pt-BIMA.

The test system of assay [8] is Y fork (DNA, junction) CGCACGTACGGAACGGCACTCGCTTGCTCG/CGAGCAAGCGAGTGCAGCGTGGATACATGC
Put plainly: UV melting, 260 nm. As to conditions: Na+ (10 mM Na cacodylate, 50 mM NaOAc); 1 equivalent Pt-BIMA.

Assay [9] deals with 4WJ-FAM1 (DNA, junction) GCCTAGCATGATACTGCTACCG/CGGTAGCAGTACCGTTGGTGGC/GCCACCAACGGCGTCAACTGCC/GGCAGTTGACGTCATGCTAGGC
Briefly: FRET, FAM emission. Particulars: Na+ 50 mM (NaOAc); 10 mM HEPES; 5 µM DNA, 1 equivalent Pt-BIMA; FAM emission up about 3.5-fold.

Assay [10] has as its system FAM-labelled 4WJ-22 (FAM-4WJ) (DNA, junction) GCCTAGCATGATACTGCTACCG/CGGTAGCAGTACCGTTGGTGGC/GCCACCAACGGCGTCAACTGCC/GGCAGTTGACGTCATGCTAGGC
Briefly: microscale thermophoresis. Particulars: Na+ 50 mM (NaOAc); 10 mM HEPES, 0.1% Tween, room temperature; 20 nM DNA.

Assay [11] deals with FAM-labelled 3WJ-18 (DNA, junction) GTGGCGAGAGCGACGATC/GATCGTCGCAGAGTTGAC/GTCAACTCTTCTCGCCAC
Put plainly: microscale thermophoresis. Particulars: Na+ 50 mM (NaOAc); 10 mM HEPES, 0.1% Tween, room temperature; error exceeds value.

Assay [12] deals with FAM-labelled DS-21 (dsDNA) (DNA, duplex) CCTTCACGCGAACGTAATCCT/AGGATTACGTTCGCGTGAAGG
Put plainly: microscale thermophoresis. As to conditions: Na+ 50 mM (NaOAc); 10 mM HEPES, 0.1% Tween, room temperature; tested 1.5 nM to 50 µM Pt-BIMA.

Assay [13] has as its system 4WJ-22 (DNA, junction) GCCTAGCATGATACTGCTACCG/CGGTAGCAGTACCGTTGGTGGC/GCCACCAACGGCGTCAACTGCC/GGCAGTTGACGTCATGCTAGGC
Briefly: MST competition, unlabelled DNA titrated. Particulars: Na+ 50 mM (NaOAc); IC50 of competitor DNA, not of compound; 20 nM FAM-4WJ-22, 80 nM Pt-BIMA; 10 mM HEPES, 0.1% Tween-20.

The subject of assay [14] is DS-21 (dsDNA) (DNA, duplex) CCTTCACGCGAACGTAATCCT/AGGATTACGTTCGCGTGAAGG
Briefly: MST competition, unlabelled DNA titrated. As to conditions: Na+ 50 mM (NaOAc); IC50 of competitor DNA, not of compound; 20 nM FAM-4WJ-22, 80 nM Pt-BIMA; 10 mM HEPES, 0.1% Tween-20.

As for `[Pd+2].[Pd+2].c1ccc2c(c1)ncn2Cc1c2ccccc2c(Cn2cnc3ccccc32)c2ccccc12.c1ccc2c(c1)ncn2Cc1c2ccccc2c(Cn2cnc3ccccc32)c2ccccc12.c1ccc2c(c1)ncn2Cc1c2ccccc2c(Cn2cnc3ccccc32)c2ccccc12.c1ccc2c(c1)ncn2Cc1c2ccccc2c(Cn2cnc3ccccc32)c2ccccc12`, the binding entry in assay [1], in assay [2] and in [3] was “yes” throughout.
Turning to `[Pt+2].[Pt+2].c1ccc2c(c1)ncn2Cc1c2ccccc2c(Cn2cnc3ccccc32)c2ccccc12.c1ccc2c(c1)ncn2Cc1c2ccccc2c(Cn2cnc3ccccc32)c2ccccc12.c1ccc2c(c1)ncn2Cc1c2ccccc2c(Cn2cnc3ccccc32)c2ccccc12.c1ccc2c(c1)ncn2Cc1c2ccccc2c(Cn2cnc3ccccc32)c2ccccc12`, the binding result is reported as “yes” in assay [1]; “yes” in [2]; “yes” in [3]; “weak” in assay [4]; “yes” in assay [9]; “no” in [12]. For the same compound, the ΔTm is 11.6 ± 0.6 °C in assay [5], 0.7 ± 0.9 °C in [6], 21.1 ± 0.1 °C in [7] and 5.4 ± 1.1 °C in [8]. Besides, the values for the Kd in [10] and in assay [11] were 8.27 ± 1.11 x 10^-8 M and 1.90 ± 2.27 × 10^-6 M, respectively. Also, the results for the IC50 in [13] and in assay [14] were 2.88 ± 0.42 x 10^-8 M and more than 25 µM, respectively.
